Like-named read-outs stand apart in the source and are kept apart here.

The subject of data set [1] is 4T1 cells. Put plainly: Mitochondrial membrane potential assay, JC-1. The class given is cell-based, Mouse. To be noted: 6.25 μM, 24 h; for JC-1 green/red fluorescence (Δψm), in words: vs control. From the text: On the other hand, rhein could also disturb mitochondria, the camp of OXPHOS, to further prevent cancer cells from obtaining ATP by inducing pathological opening of mPTP [30]. We first detected mPTP on 4T1 cancer cells treated with indicated drugs according to the mPTP assay kit. The green fluorescence of Calcein AM in mitochondria would vanish when the quencher entered mitochondria through the opened mPTP channel. […] The sustained opening of mPTP along with the loss of Δψm. Thus, we further examined the Δψm of 4T1 cancer cells with JC-1 fluorescence dyes and tetramethylrhodamine, ethyl ester (TMRE) probe. The JC-1 dyes underwent a transition from aggregated red fluorescence to monomeric green fluorescence with mitochondrial depolarization in cells, and the increase of green/red fluorescence intensity ratio of JC-1 dyes indicated mitochondrial depolarization.
TMRE is a lipophilic cationic fluorescent probe (Ex = 550 nm, Em = 575 nm). The accumulation of TMRE within the mitochondria would reduce with the mitochondrial depolarization, resulting in a decrease in fluorescence intensity. […] The integrity of mitochondria is significant for mitochondrial bioenergy production. Given the influence of ETC, NADH dehydrogenase, ATP synthase and the decrease of Δψm, we speculated that the ATP production from OXPHOS would be hindered by Rhein-DCA conjugate. Mitochondrial bioenergetic processes of 4T1 cells was measured by oxygen consumption rate (OCR) to reflect the capability of OXPHOS.
JC-1: The Δψm was performed using the JC-1 assay with flow cytometry and confocal microscope. 4T1 cells were separately seeded into 6-well plates and confocal dishes at a density of 10 × 10^4 cells per well and cultured at 37 °C for 24 h. Cells were cultured with PBS, rhein (6.25 μM), DCA (6.25 μM), R + D (6.25 μM + 6.25 μM) and Rhein-DCA (6.25 μM) for another 24 h. […] Samples were then immediately detected by flow cytometry and imaged with confocal microscope.

Data set [2] relates to 4T1, MCF-7, HeLa and CT26 cell lines. Put plainly: MTT cytotoxicity assay, statement over all tested cancer cell lines. Format: cell-based. The conditions noted are these: for IC50: 72 h, read-out: IC50 in all tested cell lines. As to the method:
The cytotoxicity of Rhein-DCA conjugate was performed on various cancer cell lines, including breast cancer (4T1 and MCF-7), cervical cancer (HeLa), and colorectal carcinoma (CT26) via 3-(4,5)-dimethylthiahiazo(-z-y1)-3,5-di-phenytetrazoliumromide (MTT) assay. […] Moreover, the cytotoxicity of these compounds (rhein, DCA, R + D and Rhein-DCA) for normal cells (293T) was lower than that of those tested cancer cells.
The cytotoxicity of rhein, DCA, the mixture of rhein and DCA (R + D) and Rhein-DCA conjugate was evaluated on HeLa, MCF-7, CT26, 4T1 and 293T cell lines by MTT assay. Cells were seeded in 96-well plates at a density of 3 × 10^3 cells per well in the corresponding complete culture medium and cultured for 24 h. Then cells were incubated with 200 μL fresh medium containing the respective desired concentrations of rhein, DCA, R + D (with the concentrations being 100, 66.7, 44.4, 29.6, 19.8, 13.2, 8.8, 5.9, 3.9, 2.6, 1.7 and 1.2 μM, respectively) and Rhein-DCA conjugate (with the concentrations being 29.6, 19.8, 13.2, 8.8, 5.9, 3.9, 2.6, 1.7, 1.2, 0.8, 0.5 and 0.3 μM, respectively). After 72 h of incubation, 20 μL of MTT solution (5 mg/mL) was added to each well and the plates were cultured for another 4 h. The medium was carefully removed, and 110 μL of DMSO was added into per well to dissolve the formazan. The absorption densities at 590 nm were recorded with microplate reader. The quoted IC50 values were presented as the mean ± standard deviation.

Data set [3] relates to 4T1 cells. Put plainly: ROS generation assay. Format: cell-based, Mouse. The conditions noted are these: for intracellular ROS (DCFH-DA fluorescence intensity): 6.25 μM, 6 h. As to the method:
Rhein is thought to trigger the generation of ROS inside cells by inhibiting mitochondrial complex II, blocking electron transfer from succinate to ubiquinone, which leads to electron leakage at the flavoprotein site, [32]. Therefore, we investigated the ROS production within 4T1 cells in control, DCA, rhein, R + D and Rhein-DCA groups. […] Then, the cellular superoxide radical anion type of ROS production was further detected using dihydroethidium (DHE) fluorescence dyes after incubation with 4T1 cells. […] The flow cytometry was used to further confirm the types of reactive oxygen species, including singlet oxygen (^1O2) and hydroxyl radicals (·OH). The ^1O2 increased greatly about 2.4-fold compared with the control group, and ·OH increased about 1.4-fold (Figure 5D-E). […] Due to the conjugating of rhein, the more mitochondrial accumulation and enhanced PDK inhibition activity of DCA promoted the energy metabolism to redirect towards OXPHOS, increased the mitochondrial electron flux, and amplified the generation of ROS. Excessive ROS would cause oxidative damage of mitochondria and further frustrate OXPHOS, leading to the effectively suppress for cancer cells.
The generation of intracellular ROS within 4T1 cells was measured with DCFH-DA, BBoxiProbe O28 and BBoxiProbe O68 and evaluated by flow cytometry. 4T1 cells were seeded into 6-well plates at a density of 10 × 10^4 cells per well and cultured at 37 °C for 24 h. The cells were treated with rhein (6.25 μM), DCA (6.25 μM), R + D (6.25 μM + 6.25 μM) and Rhein-DCA (6.25 μM) for another 6 h. Cells were detached from the plates with 0.25% Trypsin-EDTA after washed twice with PBS, flowing staining with DCFH-DA (10 μM), BBoxiProbe O28 (Ex = 516 nm, Em = 606 nm) and BBoxiProbe O68 (Ex = 516 nm, Em = 606 nm) for 20 min at 37 °C in the dark.
The level of intracellular superoxide radical anion in 4T1 cells was analyzed with DHE by confocal microscope. 4T1 cells were seeded into confocal dishes with a density of 10 × 10^4 cells per well and treated with various drugs for 24 h and washed twice with PBS, flowing staining with DHE probe (5 μM) for 30 min at 37 °C in the dark. The cellular nuclei were stained with Hoechst 33342 for 10 min at room temperature. The fluorescent images were observed by confocal microscope.

`O=C(O)c1cc(O)c2c(c1)C(=O)c1cccc(O)c1C2=O` [Rhein, 4,5-dihydroxyanthraquinone-2-carboxylic acid]: the “JC-1 green/red fluorescence (Δψm), in words” value in data set [1] is given as “relatively increased green/red ratio”. Also, in data set [2] (MTT, summary over the cell lines), the IC50 (usually the point on the concentration scale where inhibition reaches its midpoint) is 40 to 80 µM. Further, the “intracellular ROS (DCFH-DA fluorescence intensity)” value in data set [3] (flow cytometry) is “slight enhancement”.
Turning to `O=C(OCCOC(=O)C(Cl)Cl)c1cc(O)c2c(c1)C(=O)c1cccc(O)c1C2=O` [Rhein-DCA], the “JC-1 green/red ratio relative to control group” value in data set [1] is given as “about 7 fold”. For the same compound, the “increase of cytotoxicity in comparison with individual rhein, DCA and their combination” value in data set [2] (all four cancer cell lines) is listed as “at least 10 fold”. Further, in data set [3] (flow cytometry), the “intracellular ROS (DCFH-DA fluorescence intensity)” value was “stronger fluorescence signal”, the “^1O2 increase compared with control group” value was “about 2.4 fold” and the “·OH increase compared with control group” value is recorded as “about 1.4 fold”. Also, in data set [3] (24 h, CLSM), the “superoxide radical anion (DHE fluorescence)” value is recorded as “remarkable red intensity”.
In the case of `O=C(O)C(Cl)Cl` [DCA, Dichloroacetate], the “JC-1 green/red fluorescence (Δψm), in words” value in data set [1] is “did not affect”. Moreover, the IC50 in data set [2] was > 100 µM.
